Results taken from patent publication US20020026053A1, “Novel 3-(substituted) -2- indolinones compounds and use thereof as inhibitors of protein kinase activity” (priority 1997, published 2002).

Tests used:
[1] = system: PDGF-R; assay: PDGF-R Assay (cellular ELISA, U1242 cells); format: cell-based; parameters: concentration or dose not given beside the values; conditions: protocol P.119
Outline: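 U1242 cells seeded in 0.5% serum, serum-starved, then exposed to compound for 2 hr at 37°C before 5–10 min ligand stimulation and lysis in HNTG. Lysate captured on receptor-antibody-coated plates; phosphotyrosine detected with polyclonal anti-pTyr, goat anti-rabbit IgG and ABTS/H2O2, A410 (ref 630 nm), versus untreated cells.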

[2] = target: T1, EGFR (Homo sapiens, UniProt P00533); assay: Biochemical EGFR Assay; parameters: concentration or dose not given beside the values; conditions: protocol P.167
T1 construct: endogenous in cells; host or cells: A431 cells (lysate, captured with SUMO1 anti-EGFR antibody)
T1 sequence (P00533 25-1210): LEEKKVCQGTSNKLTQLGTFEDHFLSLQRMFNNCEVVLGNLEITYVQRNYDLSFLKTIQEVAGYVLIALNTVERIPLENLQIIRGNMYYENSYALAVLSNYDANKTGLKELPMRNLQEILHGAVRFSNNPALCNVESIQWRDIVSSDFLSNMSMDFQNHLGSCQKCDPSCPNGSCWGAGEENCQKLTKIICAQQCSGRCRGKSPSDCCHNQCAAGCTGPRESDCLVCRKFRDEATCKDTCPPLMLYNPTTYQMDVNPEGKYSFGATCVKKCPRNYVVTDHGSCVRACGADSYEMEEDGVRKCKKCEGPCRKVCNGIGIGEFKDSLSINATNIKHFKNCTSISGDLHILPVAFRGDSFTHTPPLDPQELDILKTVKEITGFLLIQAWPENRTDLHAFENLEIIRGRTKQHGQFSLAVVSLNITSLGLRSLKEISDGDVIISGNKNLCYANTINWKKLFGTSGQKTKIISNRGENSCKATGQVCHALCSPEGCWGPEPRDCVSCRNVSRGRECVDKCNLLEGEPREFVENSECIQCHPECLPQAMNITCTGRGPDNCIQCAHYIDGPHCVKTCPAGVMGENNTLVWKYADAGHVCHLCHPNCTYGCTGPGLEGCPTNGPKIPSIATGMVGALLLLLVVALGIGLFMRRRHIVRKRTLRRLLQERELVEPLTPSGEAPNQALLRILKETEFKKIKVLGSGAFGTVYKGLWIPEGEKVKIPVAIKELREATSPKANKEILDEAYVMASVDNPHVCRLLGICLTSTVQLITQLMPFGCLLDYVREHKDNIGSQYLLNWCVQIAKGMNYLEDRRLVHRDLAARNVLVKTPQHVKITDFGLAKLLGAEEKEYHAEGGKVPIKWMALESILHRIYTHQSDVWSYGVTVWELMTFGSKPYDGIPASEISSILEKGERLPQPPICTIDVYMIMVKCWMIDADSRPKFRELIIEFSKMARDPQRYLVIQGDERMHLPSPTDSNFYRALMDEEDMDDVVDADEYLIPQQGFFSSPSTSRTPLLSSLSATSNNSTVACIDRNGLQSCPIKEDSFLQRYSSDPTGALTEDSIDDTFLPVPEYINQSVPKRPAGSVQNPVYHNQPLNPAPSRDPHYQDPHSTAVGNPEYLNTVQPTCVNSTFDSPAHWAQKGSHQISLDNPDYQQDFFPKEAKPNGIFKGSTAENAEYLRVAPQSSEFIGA
Outline: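 EGFR from A431 lysate was captured on anti-EGFR-coated wells and preincubated 30 min with compound (diluted 1:10 in TBS) at room temperature. After ATP/MnCl2 phosphorylation for 5 min, the reaction was stopped with EDTA. Phosphotyrosine was detected by ELISA (anti-phosphotyrosine, peroxidase conjugate, ABTS) at 410 nm.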

In the case of CCOc1ccc(C=C2C(=O)Nc3ccc(S(=O)(=O)Nc4ccc(C(F)(F)F)cc4)cc32)cc1 [10737/E02], the “PDGF Kinase % Inhibition (P.119)” value [1] is reported as 12.9% and the “Biochem EGFR % Inhibition (P.167)” value [2] is reported as 6.7%.
For Cc1ccc(C=C2C(=O)Nc3ccc(S(=O)(=O)Nc4ccc(C(F)(F)F)cc4)cc32)c(C)c1 [10737/E03], the “PDGF Kinase % Inhibition (P.119)” value [1] was 39.2% and the “Biochem EGFR % Inhibition (P.167)” value [2] was −4.5%.
O=C1Nc2ccc(S(=O)(=O)Nc3ccc(C(F)(F)F)cc3)cc2C1=Cc1cc(F)ccc1F [10737/E04] was tested, and the “PDGF Kinase % Inhibition (P.119)” value [1] was 29.7% and the “Biochem EGFR % Inhibition (P.167)” value [2] was 15.4%.
O=C1Nc2ccc(S(=O)(=O)Nc3ccc(C(F)(F)F)cc3)cc2C1=Cc1cccc(F)c1F [10737/E05] was tested, and the “PDGF Kinase % Inhibition (P.119)” value [1] was 33.3% and the “Biochem EGFR % Inhibition (P.167)” value [2] was −8.6%.
With COc1ccc(C=C2C(=O)Nc3ccc(S(=O)(=O)Nc4ccc(C(F)(F)F)cc4)cc32)cc1F [10737/E06] the “PDGF Kinase % Inhibition (P.119)” value [1] was 26.5% and the “Biochem EGFR % Inhibition (P.167)” value [2] was −14.1%.
With Cc1ccc(C)c(C=C2C(=O)Nc3ccc(S(=O)(=O)Nc4ccc(C(F)(F)F)cc4)cc32)c1 [10737/E07] the “PDGF Kinase % Inhibition (P.119)” value [1] was 28.1% and the “Biochem EGFR % Inhibition (P.167)” value [2] was −12.3%.
With O=C1Nc2ccc(S(=O)(=O)Nc3ccc(C(F)(F)F)cc3)cc2C1=Cc1ccc2ccccc2c1 [10737/E08] the “PDGF Kinase % Inhibition (P.119)” value [1] was 35.6% and the “Biochem EGFR % Inhibition (P.167)” value [2] was −7.8%.
In the case of O=C1Nc2ccc(S(=O)(=O)Nc3ccc(C(F)(F)F)cc3)cc2C1=Cc1ccc(Oc2ccccc2)cc1 [10737/E09], the “PDGF Kinase % Inhibition (P.119)” value [1] is reported as 25.7% and the “Biochem EGFR % Inhibition (P.167)” value [2] is reported as −0.7%.
In the case of CC(C)(C)c1ccc(Oc2cccc(C=C3C(=O)Nc4ccc(S(=O)(=O)Nc5ccc(C(F)(F)F)cc5)cc43)c2)cc1 [10737/E10], the “PDGF Kinase % Inhibition (P.119)” value [1] is reported as 30.9% and the “Biochem EGFR % Inhibition (P.167)” value [2] is reported as −4.2%.
O=C1Nc2ccc(S(=O)(=O)Nc3ccc(C(F)(F)F)cc3)cc2C1=Cc1cccc(Oc2cccc(C(F)(F)F)c2)c1 [10737/E11] was tested, and the “PDGF Kinase % Inhibition (P.119)” value [1] was 38.0% and the “Biochem EGFR % Inhibition (P.167)” value [2] was −33.4%.
With CCOc1ccc(C=C2C(=O)Nc3ccc(S(=O)(=O)N4CCOCC4)cc32)cc1 [10737/F02] the “PDGF Kinase % Inhibition (P.119)” value [1] was 9.0% and the “Biochem EGFR % Inhibition (P.167)” value [2] was 21.4%.
For Cc1ccc(C=C2C(=O)Nc3ccc(S(=O)(=O)N4CCOCC4)cc32)c(C)c1 [10737/F03], the “PDGF Kinase % Inhibition (P.119)” value [1] was 7.8% and the “Biochem EGFR % Inhibition (P.167)” value [2] was −3.1%.
For O=C1Nc2ccc(S(=O)(=O)N3CCOCC3)cc2C1=Cc1cc(F)ccc1F [10737/F04], the “PDGF Kinase % Inhibition (P.119)” value [1] was 3.8% and the “Biochem EGFR % Inhibition (P.167)” value [2] was −23.3%.
For O=C1Nc2ccc(S(=O)(=O)N3CCOCC3)cc2C1=Cc1cccc(F)c1F [10737/F05], the “PDGF Kinase % Inhibition (P.119)” value [1] was 1.0% and the “Biochem EGFR % Inhibition (P.167)” value [2] was −24.0%.
With COc1ccc(C=C2C(=O)Nc3ccc(S(=O)(=O)N4CCOCC4)cc32)cc1F [10737/F06] the “PDGF Kinase % Inhibition (P.119)” value [1] was 11.3% and the “Biochem EGFR % Inhibition (P.167)” value [2] was −13.7%.
For Cc1ccc(C)c(C=C2C(=O)Nc3ccc(S(=O)(=O)N4CCOCC4)cc32)c1 [10737/F07], the “PDGF Kinase % Inhibition (P.119)” value [1] was 12.9% and the “Biochem EGFR % Inhibition (P.167)” value [2] was −25.5%.
For O=C1Nc2ccc(S(=O)(=O)N3CCOCC3)cc2C1=Cc1ccc2ccccc2c1 [10737/F08], the “PDGF Kinase % Inhibition (P.119)” value [1] was 9.8% and the “Biochem EGFR % Inhibition (P.167)” value [2] was 28.3%.
O=C1Nc2ccc(S(=O)(=O)N3CCOCC3)cc2C1=Cc1ccc(Oc2ccccc2)cc1 [10737/F09] was tested, and the “PDGF Kinase % Inhibition (P.119)” value [1] was 9.8% and the “Biochem EGFR % Inhibition (P.167)” value [2] was 23.5%.
In the case of CC(C)(C)c1ccc(Oc2cccc(C=C3C(=O)Nc4ccc(S(=O)(=O)N5CCOCC5)cc43)c2)cc1 [10737/F10], the “PDGF Kinase % Inhibition (P.119)” value [1] is reported as 11.0% and the “Biochem EGFR % Inhibition (P.167)” value [2] is reported as 14.6%.
With O=C1Nc2ccc(S(=O)(=O)N3CCOCC3)cc2C1=Cc1cccc(Oc2cccc(C(F)(F)F)c2)c1 [10737/F11] the “PDGF Kinase % Inhibition (P.119)” value [1] was 16.5% and the “Biochem EGFR % Inhibition (P.167)” value [2] was −0.7%.
In the case of CCOc1ccc(C=C2C(=O)Nc3ccc(CCCl)cc32)cc1 [10737/G02], the “PDGF Kinase % Inhibition (P.119)” value [1] is reported as −5.8% and the “Biochem EGFR % Inhibition (P.167)” value [2] is reported as 12.4%.
In the case of Cc1ccc(C=C2C(=O)Nc3ccc(CCCl)cc32)c(C)c1 [10737/G03], the “PDGF Kinase % Inhibition (P.119)” value [1] is reported as 21.7% and the “Biochem EGFR % Inhibition (P.167)” value [2] is reported as −0.5%.
For O=C1Nc2ccc(CCCl)cc2C1=Cc1cc(F)ccc1F [10737/G04], the “PDGF Kinase % Inhibition (P.119)” value [1] was 12.1% and the “Biochem EGFR % Inhibition (P.167)” value [2] was −19.3%.
For O=C1Nc2ccc(CCCl)cc2C1=Cc1cccc(F)c1F [10737/G05], the “PDGF Kinase % Inhibition (P.119)” value [1] was 16.1% and the “Biochem EGFR % Inhibition (P.167)” value [2] was −41.4%.
With COc1ccc(C=C2C(=O)Nc3ccc(CCCl)cc32)cc1F [10737/G06] the “PDGF Kinase % Inhibition (P.119)” value [1] was −10.2% and the “Biochem EGFR % Inhibition (P.167)” value [2] was −43.4%.
With Cc1ccc(C)c(C=C2C(=O)Nc3ccc(CCCl)cc32)c1 [10737/G07] the “PDGF Kinase % Inhibition (P.119)” value [1] was 24.1% and the “Biochem EGFR % Inhibition (P.167)” value [2] was −25.0%.
O=C1Nc2ccc(CCCl)cc2C1=Cc1ccc2ccccc2c1 [10737/G08] was tested, and the “PDGF Kinase % Inhibition (P.119)” value [1] was 13.7% and the “Biochem EGFR % Inhibition (P.167)” value [2] was 30.8%.
O=C1Nc2ccc(CCCl)cc2C1=Cc1ccc(Oc2ccccc2)cc1 [10737/G09] was tested, and the “PDGF Kinase % Inhibition (P.119)” value [1] was 8.2% and the “Biochem EGFR % Inhibition (P.167)” value [2] was 23.6%.
In the case of CC(C)(C)c1ccc(Oc2cccc(C=C3C(=O)Nc4ccc(CCCl)cc43)c2)cc1 [10737/G10], the “PDGF Kinase % Inhibition (P.119)” value [1] is reported as −0.2% and the “Biochem EGFR % Inhibition (P.167)” value [2] is reported as 17.2%.
O=C1Nc2ccc(CCCl)cc2C1=Cc1cccc(Oc2cccc(C(F)(F)F)c2)c1 [10737/G11] was tested, and the “PDGF Kinase % Inhibition (P.119)” value [1] was 5.0% and the “Biochem EGFR % Inhibition (P.167)” value [2] was 2.8%.
In the case of CCOc1ccc(C=C2C(=O)Nc3c(Br)cc(Br)c(C)c32)cc1 [10737/H02], the “PDGF Kinase % Inhibition (P.119)” value [1] is reported as −18.1% and the “Biochem EGFR % Inhibition (P.167)” value [2] is reported as −17.2%.
In the case of Cc1ccc(C=C2C(=O)Nc3c(Br)cc(Br)c(C)c32)c(C)c1 [10737/H03], the “PDGF Kinase % Inhibition (P.119)” value [1] is reported as −21.3% and the “Biochem EGFR % Inhibition (P.167)” value [2] is reported as −22.6%.
For Cc1c(Br)cc(Br)c2c1C(=Cc1cc(F)ccc1F)C(=O)N2 [10737/H04], the “PDGF Kinase % Inhibition (P.119)” value [1] was −21.3% and the “Biochem EGFR % Inhibition (P.167)” value [2] was −17.6%.
With Cc1c(Br)cc(Br)c2c1C(=Cc1cccc(F)c1F)C(=O)N2 [10737/H05] the “PDGF Kinase % Inhibition (P.119)” value [1] was −6.2% and the “Biochem EGFR % Inhibition (P.167)” value [2] was −17.4%.
COc1ccc(C=C2C(=O)Nc3c(Br)cc(Br)c(C)c32)cc1F [10737/H06] was tested, and the “PDGF Kinase % Inhibition (P.119)” value [1] was −1.8% and the “Biochem EGFR % Inhibition (P.167)” value [2] was −31.0%.
